Test results from patent US9247740B2, “Isoxazoline derivatives as insecticidal compounds” (Syngenta Participations AG, priority 2011, dated 2016).

Assays:
Type in all cases: in vivo
[1] = system: Heliothis virescens (Tobacco Budworm); experiment: Heliothis virescens egg test on artificial diet; settings: 96 h, 200 ppm (concentration in well 18 ppm), eggs 0-24 h old on artificial diet, egg mortality, larval mortality, growth regulation after 4 days
Text: (§1) This Example illustrates the insecticidal and acaricidal properties of compounds of formula (I).

[2] = system: Plutella xylostella (Diamond Back Moth); experiment: Plutella xylostella larval test on artificial diet; settings: 144 h, 200 ppm (concentration in well 18 ppm), L2 larvae, larval mortality and growth regulation after 6 days
Text: as §1

[3] = system: Thrips tabaci (Onion Thrips); experiment: Thrips tabaci leaf disc spray test; settings: foliar, 168 h, 200 ppm spray on sunflower leaf discs, mixed ages, mortality after 7 days
Text: as §1

[4] = system: Diabrotica balteata (Corn Root Worm); experiment: Diabrotica balteata larval test on artificial diet; settings: 120 h, 200 ppm (concentration in well 18 ppm), L2 larvae, larval mortality and growth regulation after 5 days
Text: as §1

[5] = system: Spodoptera littoralis (Egyptian Cotton Leafworm); experiment: Spodoptera littoralis leaf disc spray test; settings: foliar, 72 h, 200 ppm spray on cotton leaf discs, mortality, feeding behavior, growth regulation 3 days after treatment
Protocol: This Example illustrates the insecticidal and acaricidal properties of compounds of formula (I). Tests were performed as follows:

[6] = system: Tetranychus urticae (Two-Spotted Spider Mite); experiment: Tetranychus urticae leaf disc spray test; settings: foliar, 192 h, 200 ppm spray on bean leaf discs, mixed ages, egg, larval and adult mortality 8 days later
Text: as §1

Measured: pest or weed control at 200 ppm

Cc1cc(C2=NOC(c3cc(Cl)cc(Cl)c3)(C(F)(F)F)C2)ccc1C(=O)NCC1CSC1 (stereo not shown) [Compound A130, 4-[5-(3,5-dichlorophenyl)-5-(trifluoromethyl)-4H-isoxazol-3-yl]-2-methyl-N-(thietan-3-ylmethyl)benzamide]
≥ 80%: all assays above

Cc1cc(C2=NOC(c3cc(Cl)cc(Cl)c3)(C(F)(F)F)C2)ccc1C(=O)NCC1CS(=O)(=O)C1 (stereo not shown) [Compound A132, 4-[5-(3,5-dichlorophenyl)-5-(trifluoromethyl)-4H-isoxazol-3-yl]-2-methyl-N-(1.1-dioxo-thietan-3-ylmethyl)benzamide]
≥ 80%: all assays above

O=C(NC1CSC1)c1ccc(C2=NOC(c3cc(Cl)cc(Cl)c3)(C(F)(F)F)C2)c([N+](=O)[O-])c1 (stereo not shown) [Compound B55, 4-[5-(3,5-dichlorophenyl)-5-trifluoromethyl-4H-isoxazol-3-yl]-3-nitro-N-(thietan-3-yl)benzamide]
≥ 80%: [1] | [2] | [4] | [5]

O=C(NC1CSC1)c1ccc(C2=NOC(c3cc(Cl)cc(Cl)c3)(C(F)(F)F)C2)cc1[N+](=O)[O-] (stereo not shown) [Compound B56, 4-[5-(3,5-dichlorophenyl)-5-trifluoromethyl-4H-isoxazol-3-yl]-2-nitro-N-(thietan-3-yl)benzamide]
≥ 80%: all assays above

Nc1cc(C2=NOC(c3cc(Cl)cc(Cl)c3)(C(F)(F)F)C2)ccc1C(=O)NC1CSC1 (stereo not shown) [Compound B57, 4-[5-(3,5-dichlorophenyl)-5-trifluoromethyl-4H-isoxazol-3-yl]-2-amino-N-(thietan-3-yl)benzamide]
not listed: [3]
≥ 80%: all other assays above

CCc1cc(C2=NOC(c3cc(Cl)cc(Cl)c3)(C(F)(F)F)C2)ccc1C(=O)NC1CSC1 (stereo not shown) [Compound B69, 4-[5-(3,5-dichlorophenyl)-5-trifluoromethyl-4H-isoxazol-3-yl]-2-ethyl-N-(thietan-3-yl)benzamide]
≥ 80%: all assays above

Cc1cc(C2=NOC(c3cc(C(C)(C)C)c[nH]3)(C(F)(F)F)C2)ccc1C(=O)NC1CSC1 (stereo not shown) [Compound C003, 4-[5-(4-tert-butyl-1H-pyrrol-2-yl)-5-(trifluoromethyl)-4H-isoxazol-3-yl]-2-methyl-N-(thietan-3-yl)benzamide]
≥ 80%: [1]

Cc1cc(C2=NOC(c3cn(CC(F)F)cc3C(C)(C)C)(C(F)(F)F)C2)ccc1C(=O)NC1CSC1 (stereo not shown) [Compound C005, 4-[5-[4-tert-butyl-1-(2,2-difluoroethyl)pyrrol-3-yl]-5-(trifluoromethyl)-4H-isoxazol-3-yl]-2-methyl-N-(thietan-3-yl)benzamide]
not listed: [3]
≥ 80%: all other assays above

Cc1cc(C2=NOC(c3cc(C(F)(F)F)n(C)c3)(C(F)(F)F)C2)ccc1C(=O)NC1CSC1 (stereo not shown) [Compound C006, 2-methyl-4-[5-[1-methyl-5-(trifluoromethyl)pyrrol-3-yl]-5-(trifluoromethyl)-4H-isoxazol-3-yl]-N-(thietan-3-yl)benzamide]
not listed: [1]
≥ 80%: all other assays above

Cc1cc(C2=NOC(c3cc(C(F)(F)F)n(CC(F)F)c3)(C(F)(F)F)C2)ccc1C(=O)NC1CSC1 (stereo not shown) [Compound C007, 4-[5-[1-(2,2-difluoroethyl)-5-(trifluoromethyl)pyrrol-3-yl]-5-(trifluoromethyl)-4H-isoxazol-3-yl]-2-methyl-N-(thietan-3-yl)benzamide]
≥ 80%: all assays above

Cc1cc(C2=NOC(c3c[nH]c(C(F)(F)F)c3)(C(F)(F)F)C2)ccc1C(=O)NC1CS(=O)(=O)C1 (stereo not shown) [Compound C008, N-(1,1-dioxothietan-3-yl)-2-methyl-4-[5-(trifluoromethyl)-5-[5-(trifluoromethyl)-1H-pyrrol-3-yl]-4H-isoxazol-3-yl]benzamide]
≥ 80%: [1] | [3] | [6]

Cc1cc(C2=NOC(c3c[nH]c(C(F)(F)F)c3)(C(F)(F)F)C2)ccc1C(=O)NC1C[S+]([O-])C1 (stereo not shown) [Compound C009, 2-methyl-N-(1-oxothietan-3-yl)-4-[5-(trifluoromethyl)-5-[5-(trifluoromethyl)-1H-pyrrol-3-yl]-4H-isoxazol-3-yl]benzamide]
≥ 80%: [2] | [3] | [6]

Cc1cc(C2=NOC(c3c[nH]c(C(F)(F)F)c3)(C(F)(F)F)C2)ccc1C(=O)NC1CSC1 (stereo not shown) [Compound C010, 2-methyl-N-(thietan-3-yl)-4-[5-(trifluoromethyl)-5-[5-(trifluoromethyl)-1H-pyrrol-3-yl]-4H-isoxazol-3-yl]benzamide]
≥ 80%: [3] | [6]

Cc1cc(C2=[N+]([O-])OC(c3cc(Cl)cc(Cl)c3)(C(F)(F)F)C2)ccc1C(=O)NC1CSC1 (stereo not shown) [Compound C011, 4-[5-(3,5-dichlorophenyl)-2-oxido-5-(trifluoromethyl)-4H-isoxazol-2-ium-3-yl]-2-methyl-N-(thietan-3-yl)benzamide]
≥ 80%: [1] | [4] | [5]

Cc1cc(C2=[N+]([O-])OC(c3cc(Cl)cc(Cl)c3)(C(F)(F)F)C2)ccc1C(=O)NC1CS(=O)(=O)C1 (stereo not shown) [Compound C012, 4-[5-(3,5-dichlorophenyl)-2-oxido-5-(trifluoromethyl)-4H-isoxazol-2-ium-3-yl]-N-(1,1-dioxothietan-3-yl)-2-methyl-benzamide]
not listed: [3]
≥ 80%: all other assays above

Cc1cc(C2=NOC(c3cc(Cl)cc(Cl)c3)(C(F)(F)F)C2)ccc1C(=O)N1CC2(CSC2)C1 (stereo not shown) [Compound C013, [4-[5-(3,5-dichlorophenyl)-5-(trifluoromethyl)-4H-isoxazol-3-yl]-2-methyl-phenyl]-(6-thia-2-azaspiro[3.3]heptan-2-yl)methanone]
≥ 80%: [2] | [3] | [4] | [6]

O=C(N[C@H]1C[S@@+]([O-])C1)c1ccc(C2=NO[C@@](c3cc(Cl)cc(Cl)c3)(C(F)(F)F)C2)cc1Cl [Compound C15, 2-chloro-4-[(5S)-5-(3,5-dichlorophenyl)-5-(trifluoromethyl)-4H-isoxazol-3-yl]-N-(1-oxidothietan-1-ium-3-yl)benzamide]
≥ 80%: all assays above

Cc1cc(C2=NO[C@@](c3cc(Cl)cc(Cl)c3)(C(F)(F)F)C2)cnc1C(=O)N[C@H]1C[S@@+]([O-])C1 [Compound C16, 5-[(5S)-5-(3,5-dichlorophenyl)-5-(trifluoromethyl)-4H-isoxazol-3-yl]-3-methyl-N-(1-oxidothietan-1-ium-3-yl)pyridine-2-carboxamide]
≥ 80%: all assays above

Cc1cc(C2=NO[C@@](c3cc(Cl)c(Cl)c(Cl)c3)(C(F)(F)F)C2)ccc1C(=O)N[C@H]1C[S@@+]([O-])C1 [Compound C17, 2-methyl-N-(1-oxothietan-3-yl)-4-[(5S)-5-(3,4,5-trichlorophenyl)-5-(trifluoromethyl)-4H-isoxazol-3-yl]benzamide]
≥ 80%: all assays above

Cc1cc(C2=NO[C@@](c3cc(Cl)c(F)c(Cl)c3)(C(F)(F)F)C2)ccc1C(=O)NC1CS(=O)(=O)C1 [Compound C18, 4-[(5S)-5-(3,5-dichloro-4-fluoro-phenyl)-5-(trifluoromethyl)-4H-isoxazol-3-yl]-N-(1,1-dioxothietan-3-yl)-2-methyl-benzamide]
≥ 80%: all assays above
